Like-named read-outs stand apart in the source and are kept apart here.

From paper PMC8402619 (Viruses, 2021) come the findings set out here.

Common to all, as to type: in vitro ADME
Data set [1] has as its target T1, OCT2 (Homo sapiens, UniProt O15244).
T1 construct: expressed in transfected cells; host or cells: CHO-K1
T1 sequence (O15244 1-555): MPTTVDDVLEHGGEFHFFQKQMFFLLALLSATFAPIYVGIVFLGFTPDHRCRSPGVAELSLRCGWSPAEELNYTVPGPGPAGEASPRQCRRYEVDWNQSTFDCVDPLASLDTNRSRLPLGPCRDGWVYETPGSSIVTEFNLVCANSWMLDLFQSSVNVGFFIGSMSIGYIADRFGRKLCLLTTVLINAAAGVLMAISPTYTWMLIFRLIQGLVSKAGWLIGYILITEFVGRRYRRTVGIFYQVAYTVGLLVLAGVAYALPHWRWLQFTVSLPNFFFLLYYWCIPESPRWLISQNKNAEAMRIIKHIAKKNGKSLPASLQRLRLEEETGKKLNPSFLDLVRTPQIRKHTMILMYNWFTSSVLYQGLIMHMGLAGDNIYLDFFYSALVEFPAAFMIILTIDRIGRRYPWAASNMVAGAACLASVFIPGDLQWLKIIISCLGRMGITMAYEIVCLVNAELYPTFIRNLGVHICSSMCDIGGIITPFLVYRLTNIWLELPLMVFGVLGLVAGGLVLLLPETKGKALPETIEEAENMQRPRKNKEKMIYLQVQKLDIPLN
Put plainly: Inhibition of transporter-mediated probe uptake in CHO-K1-OCT2 cells.

Data set [2] deals with T2, BCRP (Homo sapiens, UniProt Q9UNQ0).
T2 sequence (Q9UNQ0 1-655): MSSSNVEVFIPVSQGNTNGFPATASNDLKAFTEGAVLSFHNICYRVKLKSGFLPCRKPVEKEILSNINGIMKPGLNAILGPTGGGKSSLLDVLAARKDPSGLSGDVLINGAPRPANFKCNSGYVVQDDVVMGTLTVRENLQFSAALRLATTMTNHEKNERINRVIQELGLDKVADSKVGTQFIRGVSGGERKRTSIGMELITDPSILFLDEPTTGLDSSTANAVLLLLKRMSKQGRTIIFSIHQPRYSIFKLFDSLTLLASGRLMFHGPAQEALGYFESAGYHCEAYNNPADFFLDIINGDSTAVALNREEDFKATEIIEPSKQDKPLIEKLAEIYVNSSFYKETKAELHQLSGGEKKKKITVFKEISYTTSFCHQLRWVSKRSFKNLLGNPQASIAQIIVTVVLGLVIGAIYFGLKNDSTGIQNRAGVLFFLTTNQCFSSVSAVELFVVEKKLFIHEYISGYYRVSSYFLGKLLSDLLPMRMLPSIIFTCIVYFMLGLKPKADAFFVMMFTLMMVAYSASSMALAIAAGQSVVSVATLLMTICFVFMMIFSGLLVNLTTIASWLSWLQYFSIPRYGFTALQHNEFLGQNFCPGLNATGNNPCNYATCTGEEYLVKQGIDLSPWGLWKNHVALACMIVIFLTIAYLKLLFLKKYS
The data set is described as follows: Bidirectional transport across MDCKII and MDCKII-BCRP cell monolayers. Set-up: expressed in transfected cells; host or cells: MDCKII. The note with it: for efflux ratio at 3 h, 2 µM: human.

The target in data set [3] is T3, MATE2K (Homo sapiens, UniProt Q86VL8).
T3 construct: expressed in transfected cells; host or cells: MDCKII
T3 sequence (Q86VL8 1-566 isoform Q86VL8-3): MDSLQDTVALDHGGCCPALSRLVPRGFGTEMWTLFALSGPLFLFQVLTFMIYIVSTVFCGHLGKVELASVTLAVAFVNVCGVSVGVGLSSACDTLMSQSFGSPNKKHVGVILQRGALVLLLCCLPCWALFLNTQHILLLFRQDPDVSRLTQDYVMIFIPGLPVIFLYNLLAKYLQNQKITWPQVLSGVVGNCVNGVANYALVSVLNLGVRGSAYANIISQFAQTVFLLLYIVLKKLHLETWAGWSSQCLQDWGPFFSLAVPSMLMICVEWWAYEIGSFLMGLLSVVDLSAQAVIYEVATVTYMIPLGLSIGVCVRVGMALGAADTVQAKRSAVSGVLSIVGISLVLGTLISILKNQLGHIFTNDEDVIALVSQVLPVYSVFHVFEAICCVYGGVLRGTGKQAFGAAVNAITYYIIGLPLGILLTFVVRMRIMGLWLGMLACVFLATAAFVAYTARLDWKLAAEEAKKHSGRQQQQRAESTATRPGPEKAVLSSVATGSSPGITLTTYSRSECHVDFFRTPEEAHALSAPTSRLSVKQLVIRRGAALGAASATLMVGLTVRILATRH
Put plainly: Inhibition of transporter-mediated probe uptake in MDCKII-MATE2K cells.

In data set [4] the target is T4, CYP2B6 (Homo sapiens, UniProt P20813).
T4 sequence (P20813 1-491): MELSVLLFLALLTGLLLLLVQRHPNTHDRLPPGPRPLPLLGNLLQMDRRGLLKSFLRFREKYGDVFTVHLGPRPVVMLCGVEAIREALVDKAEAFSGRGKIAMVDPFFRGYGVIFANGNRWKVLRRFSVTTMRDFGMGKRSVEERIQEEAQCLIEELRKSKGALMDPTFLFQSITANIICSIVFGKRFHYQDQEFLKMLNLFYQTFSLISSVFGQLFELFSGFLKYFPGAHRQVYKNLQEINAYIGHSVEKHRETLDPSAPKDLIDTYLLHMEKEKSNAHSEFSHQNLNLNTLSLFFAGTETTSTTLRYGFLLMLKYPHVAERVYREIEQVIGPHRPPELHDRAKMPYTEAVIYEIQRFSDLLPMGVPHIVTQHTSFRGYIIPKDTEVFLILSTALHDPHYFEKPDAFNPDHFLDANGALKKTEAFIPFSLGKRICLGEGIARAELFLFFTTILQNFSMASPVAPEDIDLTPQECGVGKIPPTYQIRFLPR
The data set is described as follows: Time-dependent CYP inhibition in pooled human liver microsomes. (Liver microsomes are vesicles of endoplasmic reticulum, rich in cytochrome P450 enzymes.)

Data set [5] concerns the target T5, MRP2 (Homo sapiens, UniProt Q92887).
T5 construct: purchased Thermo Fisher Scientific; host or cells: Sf9
Put plainly: Inhibition of ATP-dependent probe uptake in Sf9 membrane vesicles. The note with it: MRP2-mediated ATP-dependent uptake of ethacrynic acid glutathione conjugate.

T5 sequence (Q92887 whole entry): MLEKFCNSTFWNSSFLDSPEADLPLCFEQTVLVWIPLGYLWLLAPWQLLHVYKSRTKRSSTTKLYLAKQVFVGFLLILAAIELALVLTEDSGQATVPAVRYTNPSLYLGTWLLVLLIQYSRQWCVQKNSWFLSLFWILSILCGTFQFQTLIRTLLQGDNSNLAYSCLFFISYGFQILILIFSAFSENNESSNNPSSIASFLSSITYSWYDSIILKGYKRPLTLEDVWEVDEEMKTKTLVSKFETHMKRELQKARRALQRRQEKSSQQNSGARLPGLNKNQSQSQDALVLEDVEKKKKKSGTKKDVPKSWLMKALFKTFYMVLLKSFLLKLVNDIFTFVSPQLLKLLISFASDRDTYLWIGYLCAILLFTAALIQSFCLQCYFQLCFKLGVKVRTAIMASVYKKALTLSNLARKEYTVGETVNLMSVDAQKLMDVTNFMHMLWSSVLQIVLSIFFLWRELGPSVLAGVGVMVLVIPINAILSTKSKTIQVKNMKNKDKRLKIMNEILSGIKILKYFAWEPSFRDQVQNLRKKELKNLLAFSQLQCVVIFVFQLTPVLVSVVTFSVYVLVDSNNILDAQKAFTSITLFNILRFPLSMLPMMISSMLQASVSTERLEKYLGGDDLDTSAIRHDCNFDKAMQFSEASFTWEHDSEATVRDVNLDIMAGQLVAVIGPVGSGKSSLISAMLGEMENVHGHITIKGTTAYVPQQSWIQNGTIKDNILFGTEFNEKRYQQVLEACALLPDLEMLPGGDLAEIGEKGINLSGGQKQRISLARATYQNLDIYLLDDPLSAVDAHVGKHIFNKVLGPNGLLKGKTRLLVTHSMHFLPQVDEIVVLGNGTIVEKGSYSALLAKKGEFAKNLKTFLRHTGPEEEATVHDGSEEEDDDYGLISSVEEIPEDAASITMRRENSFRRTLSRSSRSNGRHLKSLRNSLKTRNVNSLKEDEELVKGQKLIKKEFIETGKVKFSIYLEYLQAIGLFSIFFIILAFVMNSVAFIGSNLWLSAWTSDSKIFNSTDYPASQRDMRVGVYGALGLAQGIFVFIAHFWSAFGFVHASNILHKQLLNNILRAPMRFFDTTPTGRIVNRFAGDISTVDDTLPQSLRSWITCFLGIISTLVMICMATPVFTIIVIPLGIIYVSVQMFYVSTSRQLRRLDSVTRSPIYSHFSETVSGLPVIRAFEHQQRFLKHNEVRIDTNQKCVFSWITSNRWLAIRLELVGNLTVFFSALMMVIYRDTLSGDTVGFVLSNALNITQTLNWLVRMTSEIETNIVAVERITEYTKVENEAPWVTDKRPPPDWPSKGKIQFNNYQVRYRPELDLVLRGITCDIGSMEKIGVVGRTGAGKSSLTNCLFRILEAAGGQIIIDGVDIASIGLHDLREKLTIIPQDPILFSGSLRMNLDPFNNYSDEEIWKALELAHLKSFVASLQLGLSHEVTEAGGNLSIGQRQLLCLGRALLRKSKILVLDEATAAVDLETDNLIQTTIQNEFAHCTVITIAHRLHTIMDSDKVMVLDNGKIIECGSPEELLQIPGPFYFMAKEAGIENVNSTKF

The molecule `C#C[C@]1(CO)O[C@@H](n2cnc3c(N)nc(F)nc32)C[C@@H]1O` [Islatravir, 4′-Ethynyl-2-fluoro-2′-deoxyadenosine] showed an inhibition at 100 µM in data set [1] (CHO-K1-OCT2 cells, probe metformin, 100 µM islatravir) of 15%. Further, the IC50 is greater than 100 µM in data set [1] (OCT2-mediated metformin uptake, read-out: Islatravir IC50); greater than 75 µM in data set [3] (MATE2K, metformin uptake, read-out: Islatravir IC50); greater than 50 µM in data set [4] (time dependent, CYP2B6, read-out: Islatravir IC50); greater than 100 µM in data set [5]. The “Maximum Unbound Plasma Concentration (Imax,u) to IC50 Ratio” value in data set [1] (OCT2, 60 mg, Cmax 1.01 µM, fu,p 0.96) was less than 0.010 µM; in data set [3] (MATE2K, 60 mg, Cmax 1.01 µM, fu,p 0.96), less than 0.013 µM. The “DDI Potential” value is listed as “Low risk” in data set [1] (OCT2 inhibition, FDA, EMA, PMDA guidance); “Low risk” in data set [3] (MATE2K inhibition, FDA, EMA, PMDA guidance); “Low risk ^h” in data set [4] (CYP2B6 time dependent inhibition). In addition, the BCRP substrate assessment entry in data set [2] (bi-directional transport assay) is recorded as “substrate of BCRP”. For the same molecule, in data set [2] (dog, MDCK, MDCKII cells, read-out: apparent permeability coefficient (Papp)), the Papp at 3 h, 2 µM was in the range of 1.6 to 2.2 ×10⁻⁶ cm/s. Moreover, the efflux ratio at 2 µM in data set [2] (dog, MDCK, islatravir 2 µM, untransfected control cells, mean ± SEM, read-out: mean Papp(B to A)/Papp(A to B) efflux ratio) came to 0.8 ± 0.2. Moreover, the efflux ratio at 3 h, 2 µM in data set [2] (islatravir 2 µM, BCRP-transfected monolayers with Ko143 (5 µM), mean ± SEM, read-out: mean Papp(B to A)/Papp(A to B) efflux ratio) stood at 0.9 ± 0.1; in data set [2] (islatravir 2 µM, BCRP-transfected monolayers, mean ± SEM, read-out: mean Papp(B to A)/Papp(A to B) efflux ratio), 4.3 ± 1.1. In addition, the time-dependent inhibition result in data set [4] (CYP2B6, pre-incubation of 10 and 50 µM for up to 30 min) was “no time-dependent inhibition”.

The inhibition is the percentage by which the read-out fell short of the control. A lower inhibition goes with a response near the control. By IC50 is commonly meant the concentration that inhibits the measured activity by half. What is called Papp is the rate of passage across a membrane or cell layer, normalised by area and donor concentration.
